Measurements reported in ChEMBL document CHEMBL3739390, “Plantadeprate A, a Tricyclic Monoterpene Zwitterionic Guanidium, and Related Derivatives from the Seeds of Plantago depressa” (2015).

Columns and labels:
Saccharomyces cerevisiae = assay: Inhibition of Saccharomyces cerevisiae alpha-glucosidase using 4-nitrophenyl alpha-glucopyranoside as substrate at 6.25 mM preincubated for 10 mins followed by substrate addition measured after 20 mins by spectrophotometric analysis
[1] = target: T1, Angiotensin-converting enzyme (Oryctolagus cuniculus) (UniProt P12822); assay: Inhibition of rabbit lung ACE using hippuryl-histidyl-leucine as substrate assessed as hippuric acid formation at 10 mM by UPLC-MS analysis
T1 sequence (whole entry): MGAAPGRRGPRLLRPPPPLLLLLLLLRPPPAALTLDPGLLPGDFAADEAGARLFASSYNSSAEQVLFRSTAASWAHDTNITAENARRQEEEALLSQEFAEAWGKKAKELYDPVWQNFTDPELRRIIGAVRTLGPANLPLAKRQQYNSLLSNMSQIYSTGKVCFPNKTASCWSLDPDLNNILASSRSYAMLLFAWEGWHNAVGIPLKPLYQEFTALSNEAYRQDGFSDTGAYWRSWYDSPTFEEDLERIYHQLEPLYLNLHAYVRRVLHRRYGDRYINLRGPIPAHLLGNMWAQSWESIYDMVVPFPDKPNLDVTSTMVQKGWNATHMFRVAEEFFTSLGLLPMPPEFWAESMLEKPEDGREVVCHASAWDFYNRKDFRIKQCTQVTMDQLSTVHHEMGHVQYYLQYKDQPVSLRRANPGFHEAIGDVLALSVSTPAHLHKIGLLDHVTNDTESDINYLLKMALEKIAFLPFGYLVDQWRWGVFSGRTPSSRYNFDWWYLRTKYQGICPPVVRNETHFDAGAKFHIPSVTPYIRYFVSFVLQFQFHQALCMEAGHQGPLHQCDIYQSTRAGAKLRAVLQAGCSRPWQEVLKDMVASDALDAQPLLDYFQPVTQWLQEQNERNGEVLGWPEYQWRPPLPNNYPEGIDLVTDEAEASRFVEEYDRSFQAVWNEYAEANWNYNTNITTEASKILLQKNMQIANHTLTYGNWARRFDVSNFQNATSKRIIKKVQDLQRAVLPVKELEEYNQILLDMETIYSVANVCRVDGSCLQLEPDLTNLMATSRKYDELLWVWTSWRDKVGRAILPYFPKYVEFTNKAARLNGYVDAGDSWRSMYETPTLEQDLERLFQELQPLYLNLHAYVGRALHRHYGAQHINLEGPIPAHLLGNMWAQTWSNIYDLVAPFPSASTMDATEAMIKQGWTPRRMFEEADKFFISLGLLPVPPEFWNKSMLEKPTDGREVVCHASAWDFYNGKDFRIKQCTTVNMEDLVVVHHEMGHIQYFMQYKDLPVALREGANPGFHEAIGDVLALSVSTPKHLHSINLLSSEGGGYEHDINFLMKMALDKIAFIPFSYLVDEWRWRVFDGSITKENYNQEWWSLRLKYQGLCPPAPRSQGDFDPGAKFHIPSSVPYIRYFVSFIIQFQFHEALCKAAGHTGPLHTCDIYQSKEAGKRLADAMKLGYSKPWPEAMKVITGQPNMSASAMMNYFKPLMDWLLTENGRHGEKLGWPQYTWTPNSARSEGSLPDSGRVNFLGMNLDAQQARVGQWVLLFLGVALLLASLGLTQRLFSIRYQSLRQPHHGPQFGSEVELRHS

Hepatocyte [2] = assay: Antihyperglycemic activity in Sprague-Dawley rat hepatocytes assessed as inhibition of glucose production at 40 uM after 6 hrs by glucose oxidase activity assay; assay type: functional
Hepatocyte [3] = assay: Antihyperglycemic activity in Sprague-Dawley rat hepatocytes assessed as inhibition of glucose production at 2 mM after 6 hrs by glucose oxidase activity assay; assay type: functional

Compound | inhibition (Saccharomyces cerevisiae) [%] | inhibition [1] [%] | inhibition at 40 µM (Hepatocyte [2]) [%] | inhibition at 2000 µM (Hepatocyte [3]) [%]
CC1(C)C[C@]2(O)C[C@@H](C(=O)[O-])[C@@H]3CNC(=[N+]32)N1 | 20 | 26 | 8.2 | 
CN(C)C(=N)NC(=N)N [METFORMIN] |  |  |  | 25
CC(C)=CCC[C@@H](C(=O)O)[C@@H]1CN(CC(O)CCO)C(=N)N1 (stereo partly specified) |  |  | 18.5 | 
CC(C)=CCC[C@@H](C(=O)O)[C@@H]1CNC(=N)N1 |  |  | 12.5 | 
